Like-named read-outs stand apart in the source and are kept apart here.

The target of one series is T1, Cyp2C19 (Homo sapiens, UniProt P33261).
T1 construct: tissue Cyprotex/Evotec AG; host or cells: human liver microsomes
The experiment in a line: Cyp enzyme inhibition in human liver microsomes. Format: in vitro ADME. To be noted: 30 min pre-incubation. For orientation: Liver microsomes are vesicles of endoplasmic reticulum, rich in cytochrome P450 enzymes.

For series [1], the system named is Cyp3A4. More on the design: method as in PMID 25437209. The note with it: substrate luciferin-6′ phenylpiperazinylyl; PubChem; cited from earlier work.
For another series, the system named is Cyp1A2. More on the design: method as in PubChem BioAssay ID 1476. The note with it: ref PubChem BioAssay ID 1476; cited from earlier work.
In another series the test system is (hu)CMKLR1 L1.2 cells. The experiment in a line: Chemotaxis assay toward huChemerin. It counts as cell-based, human. The note with it: Homo sapiens; (hu)CMKLR1 L1.2 cells migrating toward huChemerin, 2 h; read-out: Chemotaxis IC50 mean ± SEM (n). The protocol:
(hu)CMKLR1 transfectants (generated in L1.2 pre-B cell lymphoma cells) were grown in RPMI 1640 (Corning) supplemented with L-glutamine, penicillin-streptomycin, and 10% BCS and G418-sulfate (KSE Scientific). DiscoverX PathHunter® CHO-K1 CMKLR1 β-Arrestin Cells were grown in RPMI lacking phenol red (Gibco, Life Technologies), supplemented with L-glutamine, penicillin-streptomycin, sodium pyruvate, non-essential amino acid, BCS, hygromycin, and G418-sulfate.
(hu)CMKLR1 L1.2 cells at 1 × 10^6 cell/ml were treated with 5 mM sodium butyrate (Sigma) overnight to induce hCMKLR1 expression. The next day, cells were washed in migration media (RPMI + 0.5%BSA) and resuspended at 1.5–3 × 10^6 cell/ml. Cells were pre-incubated at RT for 10 min with various concentrations of α-NETA or test compounds (α-NETA and test compounds were reconstituted in DMSO; final DMSO concentration in each well was 0.1%). 100 ul of cells were added to the upper chamber of a 24-well transwell plate (5 um pore size, Costar). Cells were allowed to migrate toward huChemerin ([…] in migration media, bottom chamber) for 2 h, 37 °C, 5% CO2. The number of migrated cells was quantified by flow cytometry (BD LSR2), and live cells were distinguished based on FSC × SSC properties. The background for this assay was typically low with 0 cells migrating to the buffer alone. For each independent trial, data was normalized to the maximum migration per compound tested and an IC50 value was generated using GraphPad Prism software. The average IC50 value for n independent trials (as specified in the table) is reported.

For series [2], the target named is T2, CYP3A4 (Homo sapiens, UniProt P08684).
T2 construct: tissue Cyprotex/Evotec AG; host or cells: human liver microsomes
Nature of the series: Cyp enzyme inhibition in human liver microsomes. Format: in vitro ADME.

A further series addresses T3, Cyp2C9 (Homo sapiens, UniProt P11712).
T3 construct: tissue Cyprotex/Evotec AG; host or cells: human liver microsomes
Nature of the series: Cyp enzyme inhibition in human liver microsomes. It counts as in vitro ADME. To be noted: 30 min pre-incubation.

Another series deals with T4, CMKLR1 (Homo sapiens, UniProt Q99788).
T4 construct: host or cells: CHO-K1 (PathHunter CMKLR1 β-Arrestin cells)
T4 sequence (Q99788 1-373): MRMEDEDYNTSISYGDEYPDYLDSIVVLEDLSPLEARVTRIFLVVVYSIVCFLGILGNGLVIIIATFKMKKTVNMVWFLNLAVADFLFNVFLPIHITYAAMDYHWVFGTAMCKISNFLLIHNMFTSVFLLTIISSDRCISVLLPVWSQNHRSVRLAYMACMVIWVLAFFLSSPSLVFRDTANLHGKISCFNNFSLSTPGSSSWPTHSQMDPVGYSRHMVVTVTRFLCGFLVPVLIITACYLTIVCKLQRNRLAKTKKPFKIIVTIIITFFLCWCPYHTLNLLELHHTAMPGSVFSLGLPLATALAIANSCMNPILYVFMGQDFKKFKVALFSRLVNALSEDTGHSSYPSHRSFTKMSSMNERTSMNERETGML
The experiment in a line: β-arrestin recruitment assay (chemerin-dependent β-arrestin2 signaling). The note with it: CMKLR1-CHO-β-Arrestin cells, 20 nM chemerin, read-out: β-arrestin IC50 mean ± SEM (n). Format: cell-based. The protocol: DiscoverX PathHunter® CHO-K1 CMKLR1 β-Arrestin Cells were grown in RPMI lacking phenol red (Gibco, Life Technologies), supplemented with L-glutamine, penicillin-streptomycin, sodium pyruvate, non-essential amino acid, BCS, hygromycin, and G418-sulfate. CMKLR1-CHO-β-Arrestin cells were seeded in 96 well plates at 1 × 10^5 cell/ml- 100 ul/well and incubated overnight at 37 °C, 5% CO2. […] (α-NETA and test compounds were reconstituted in DMSO; final DMSO concentration in each well was 0.1%). After 10 min, 5 ul of recombinant human chemerin (R&D Systems) at a final concentration of 20 nM was added to each well. Plates were incubated for 90 min at 37 °C, 5% CO2. Media was then removed and 50 ul of chemiluminescent substrate (Tropix Gal-Screen, Applied Biosciences) was added. The plate was incubated for 1 hr at RT and luminescence was detected using the SpectraMax M5 plate reader (Molecular Devices). For each independent trial (single replicate dose curves), data was normalized to the maximum signal per compound tested and an IC50 value was generated using GraphPad Prism software. The average IC50 value for n independent trials (as specified in the table) is reported.

T2 sequence (P08684 whole entry): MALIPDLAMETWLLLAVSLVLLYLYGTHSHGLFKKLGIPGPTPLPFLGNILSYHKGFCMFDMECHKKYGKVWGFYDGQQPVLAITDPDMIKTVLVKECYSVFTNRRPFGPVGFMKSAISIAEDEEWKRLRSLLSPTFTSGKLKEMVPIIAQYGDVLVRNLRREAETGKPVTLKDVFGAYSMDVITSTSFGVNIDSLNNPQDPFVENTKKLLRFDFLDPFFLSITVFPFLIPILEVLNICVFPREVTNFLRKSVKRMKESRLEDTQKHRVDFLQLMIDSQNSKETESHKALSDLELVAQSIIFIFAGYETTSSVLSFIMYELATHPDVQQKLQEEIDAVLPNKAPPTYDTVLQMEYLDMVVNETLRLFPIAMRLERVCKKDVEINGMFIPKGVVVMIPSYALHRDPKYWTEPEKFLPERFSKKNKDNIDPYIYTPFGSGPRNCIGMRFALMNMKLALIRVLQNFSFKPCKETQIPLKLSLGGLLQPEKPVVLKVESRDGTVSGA
T1 sequence (P33261 whole entry): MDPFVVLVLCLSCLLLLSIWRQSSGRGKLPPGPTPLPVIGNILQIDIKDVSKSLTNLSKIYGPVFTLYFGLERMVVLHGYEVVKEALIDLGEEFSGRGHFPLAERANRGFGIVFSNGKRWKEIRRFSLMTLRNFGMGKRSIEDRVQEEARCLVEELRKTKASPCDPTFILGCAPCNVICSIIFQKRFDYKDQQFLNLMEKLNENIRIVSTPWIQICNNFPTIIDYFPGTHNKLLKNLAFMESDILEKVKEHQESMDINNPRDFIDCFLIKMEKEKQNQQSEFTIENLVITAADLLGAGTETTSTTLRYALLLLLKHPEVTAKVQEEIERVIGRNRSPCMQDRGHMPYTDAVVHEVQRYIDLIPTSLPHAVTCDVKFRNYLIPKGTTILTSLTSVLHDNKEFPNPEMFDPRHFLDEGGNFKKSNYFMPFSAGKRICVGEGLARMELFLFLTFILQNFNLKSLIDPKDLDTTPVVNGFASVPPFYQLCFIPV
T3 sequence (P11712 whole entry): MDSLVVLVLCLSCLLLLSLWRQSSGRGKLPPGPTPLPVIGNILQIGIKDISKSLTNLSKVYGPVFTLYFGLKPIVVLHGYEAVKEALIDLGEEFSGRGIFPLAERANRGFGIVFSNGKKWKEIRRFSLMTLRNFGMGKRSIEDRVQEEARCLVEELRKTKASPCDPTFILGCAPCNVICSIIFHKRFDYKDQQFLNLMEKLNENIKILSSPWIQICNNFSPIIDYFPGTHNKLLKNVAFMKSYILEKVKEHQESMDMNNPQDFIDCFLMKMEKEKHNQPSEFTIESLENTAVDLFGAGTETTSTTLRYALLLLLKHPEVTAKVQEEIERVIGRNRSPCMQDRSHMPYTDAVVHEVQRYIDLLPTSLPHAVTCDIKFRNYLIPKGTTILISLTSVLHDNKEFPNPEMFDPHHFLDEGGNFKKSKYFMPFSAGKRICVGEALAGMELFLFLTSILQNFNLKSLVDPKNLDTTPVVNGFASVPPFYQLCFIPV

Turning to `C[N+](C)(C)CCC(=O)c1cccc2ccccc12.[I-]` [α-NETA, 2-(α-naphthoyl) ethyltrimethylammonium iodide], the IC50 (in general, the concentration needed to halve the response being measured) is 84 µM at Cyp2C19; 0.2 µM with Cyp3A4 [1]; 8 µM with Cyp1A2; 37 ± 8.9 µM in the series with (hu)CMKLR1 L1.2 cells; 7.4 µM at CYP3A4 [2] (human, liver microsomes, probe midazolam, substrate Midazolam); 7.5 µM at CYP3A4 [2] (substrate Midazolam). Besides, the IC50 at CYP3A4 [2] (substrate testosterone) amounted to 6.9 µM; at Cyp2C9 it was 14.6 µM; at CMKLR1 (Table 2 tertiary amines), 4.9 ± 1.5 µM; at CMKLR1 (Table 3 quaternary ammonium salts), 4.9 ± 1.5 µM.

Values taken from article PMC6509344, “Novel CMKLR1 Inhibitors for Application in Demyelinating Disease” (Scientific Reports, 2019).
